Test [1] deals with PAL. The conditions noted are these: cited from earlier work.
For test [2], the target named is Y110F mutant of PcPAL (Petroselinum crispum, UniProt P24481, Y110F). Nature of the test: Isothermal titration calorimetry with Y110F-PcPAL. Format: binding. The settings on record: for Kd: PcPAL_Y110F K d, ITC, pH 8.0, 30 °C. On the technique in general: In ITC the heat of successive injections is recorded.
The target of test [3] is T1, PAL from Petroselinum crispum (PcPAL) (Petroselinum crispum, UniProt P24481). Nature of the test: Steady-state inhibition kinetics of PcPAL-catalyzed deamination of L-Phe. The format is biochemical.
Test [4] deals with T1, PAL from Petroselinum crispum (PcPAL). The settings on record: with PcPAL; cited from earlier work.
The subject of test [5] is Pseudomonas putida HAL. The settings on record: 9 mM, incubation for 120 min in the presence of oxygen; cited from earlier work.
For test [6], the system named is PAL. The settings on record: cited from earlier work. The source holds these as a separate data set.

Here are results for 6 compounds from article PMC5573973 (Advanced Synthesis & Catalysis, 2017).

With `N[C@H](Cc1ccccc1)C(=O)O` [(R)‐1, D‐phenylalanine], in test [1], the Type of inhibition result was “competitive inhibitor”. In test [2], this compound yielded a Kd of 29.1 µM. In test [2] (ΔΔG=ΔG wt−ΔG Y110F, contribution of the hydroxy group of Tyr110), the ΔΔG was -0.5 kcal/mol.
`NC(C1(c2ccccc2)CC1)P(=O)(O)O.O` (racemic) [(±)‐6, 1-Amino-1-(1-phenylcyclopropyl)methyl-phosphonic acid hydrate] had an inhibition constant Ki in test [3] above 1000 µM. Moreover, in test [3] (best fitting inhibition model to the experimental data), the Type of inhibition result is on record as “No inh”. For the same compound, the “Inhibition with PcPAL” value in test [3] (up to 1 mM concentration) is reported as “no measurable inhibition”.
For `NO[C@@H](Cc1ccccc1)C(=O)O` [AOPP, (S)‐2‐aminooxy‐3‐phenylpropanoic acid], the inhibition constant (Ki) in test [1] was 0.00038 µM.
`NC1(P(=O)(O)O)Cc2ccccc2C1` [AIP, 2‐aminoindan‐2‐phosphonic acid]: the Ki in test [1] was 0.025 µM. Also, the Slow binding behavior entry in test [4] is “one‐step slow binding mechanism”.
As to `N[C@@H](CCS)C(=O)O` [L‐homocysteine], the “Inhibition of HAL” value in test [5] was “irreversibly inhibited”.
As for `N[C@@H](Cc1ccccc1)C(=O)O` [(S)‐1, L‐phenylalanine], in test [6], the “Rate of ammonia elimination relative to D-phenylalanine” value is “more than 4500 times”. The compound further yielded a Kd in test [2] of 23 µM.

The term Kd denotes the equilibrium constant for the complex coming apart. The low end stands for tighter binding, the high end for weaker binding. The term Ki denotes a measure of affinity in units of concentration, obtained from inhibition or displacement.
